Literature values, collected in EP0502042B1, “PHARMACEUTICAL COMPOSITIONS” (PHARMACIA S.p.A., priority 1989, dated 1991).

Test system: mice

Q: Which “oral LD 50” value does the source give for `CN1C(=O)C(O)N=C(c2ccccc2)c2cc(Cl)ccc21` (stereo not shown) [Temazepam] here?
A: ~1000 mg/kg
